Measurements reported in US20260007133A1, “HERBICIDAL COMPOSITION COMPRISING AZINE COMPOUNDS” (BASF SE, priority 2022, published 2026).

Assays:
Assay type in all cases: in vivo
Ambrosia artemisiifolia = assay: Greenhouse pre-emergence (PRE) herbicidal test on AMBEL; settings: 20 DAT; for % activity solo application: AMBEL
Euphorbia heterophylla [1] = assay: Greenhouse post-emergence (POST) herbicidal test on EPHHL; settings: 20 DAT
Method in brief: (§1)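 Greenhouse weeds, raised in pots of humus-containing loamy sand, receive a water-based spray of the actives once 3 to 15 cm tall. Damage is rated visually from 0 (none) to 100 (above-ground parts destroyed) 20 days after treatment.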

Geranium pusillum = assay: Greenhouse post-emergence (POST) herbicidal test on GERPU; settings: Geranium pusillum, post-emergence, 480 h, 20 DAT
Method in brief: as §1

Lolium multiflorum = assay: Greenhouse pre-emergence (PRE) herbicidal test on LOLMU; settings: 20 DAT
Method in brief: (§2)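 Each species is sown separately into loamy sand containing roughly 3.0% humus and treated before emergence. Pots are watered and covered until roots establish, then held at 10-25° C or 20-35° C. Injury is rated on a 0 to 100 scale 20 days post-treatment.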

Echinochloa crus-galli [2] = assay: Greenhouse post-emergence (POST) herbicidal test on ECHCG; settings: Echinochloa crus-galli, post-emergence, 480 h, 20 DAT
Method in brief: as §1

Abutilon theophrasti [3] = assay: Greenhouse pre-emergence (PRE) herbicidal test on ABUTH; settings: PRE, 20 DAT; for % activity solo application: ABUTH
Method in brief: as §2

Setaria viridis = assay: Greenhouse pre-emergence (PRE) herbicidal test on SETVI; settings: PRE, 20 DAT; for % activity solo application: SETVI
Method in brief: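 PRE spray directly after sowing, fine nozzles; actives suspended/emulsified in water, components formulated as 5% w/w EC in spray liquor. Substrate loamy sand ~3.0% humus. Hooded until rooting; 10-25° C. / 20-35° C. per species. Score 0–100, 20 DAT.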

Euphorbia heterophylla [4] = assay: Greenhouse pre-emergence (PRE) herbicidal test on EPHHL; settings: 20 DAT; for % activity solo application: EPHHL
Method in brief: as §2

Amaranthus retroflexus = assay: Greenhouse pre-emergence (PRE) herbicidal test on AMARE; settings: PRE, 20 DAT; for % activity solo application: AMARE
Method: The culture containers used were plastic pots containing loamy sand with approximately 3.0% of humus as substrate. The seeds of the test plants were sown separately for each species.
The containers were irrigated gently to promote germination and growth and subsequently covered with transparent plastic hoods until the plants had rooted.
Depending on the species, the plants were kept at 10-25° C. and 20-35° C., respectively.
The test period extended over 2 to 4 weeks. During this time, the plants were tended and their response to the individual treatments was evaluated.
Evaluation was carried out using a scale from 0 to 100. 100 means no emergence of the plants, or complete destruction of at least the above-ground parts, and 0 means no damage or normal course of growth. A good herbicidal activity is given at values of at least 70, and very good herbicidal activity is given at values of at least 85.
As indicated application was either post emergent (POST) at the respective growth stage (GS) of the weed (BBCH code), or pre-emergent (PRE). […]

Commelina benghalensis = assay: Greenhouse pre-emergence (PRE) herbicidal test on COMBE; settings: 20 DAT; for % activity solo application: COMBE
Method in brief: as §2

Digitaria sanguinalis = assay: Greenhouse post-emergence (POST) herbicidal test on DIGSA; settings: 20 DAT; for % activity solo application: DIGSA
Method in brief: as §1

Echinochloa crus-galli [5] = assay: Greenhouse pre-emergence (PRE) herbicidal test on ECHCG; settings: PRE, 20 DAT; for % activity solo application: ECHCG
Abutilon theophrasti [6] = assay: Greenhouse post-emergence (POST) herbicidal test on ABUTH; settings: POST, ABUTH, 16 gai/ha, 20 DAT
Method in brief: as §1

Alopecurus myosuroides = assay: Greenhouse pre-emergence (PRE) herbicidal test on ALOMY; settings: PRE, ALOMY, 20 DAT
Method in brief: as §2

CCOC(=O)COc1ccccc1Oc1nc(-n2c(=O)cc(C(F)(F)F)n(C)c2=O)c(F)cc1Cl [2-[2-[[3-chloro-6-[3,6-dihydro-3-methyl-2,6-dioxo-4-(trifluoromethyl)-1(2H)-pyrimidinyl]-5-fluoro-2-pyridinyl]oxy]phenoxy]acetic acid ethyl ester]
80%: inhibition at 0.5 g/ha (Echinochloa crus-galli [2]; ECHCG POST, use rate 0.5 gai/ha, read-out: % activity) | inhibition at 0.5 g/ha (Digitaria sanguinalis; Digitaria sanguinalis, post-emergence, 480 h, DIGSA POST, use rate 0.5 gai/ha)
15%: inhibition at […] (Echinochloa crus-galli [2]; ECHCG POST, use rate 0.25 gai/ha) | pest or weed control at […] (Digitaria sanguinalis; Digitaria sanguinalis, post-emergence, 480 h, POST, 0.25 gai/ha)
50%: inhibition at […] (Euphorbia heterophylla [1]; Euphorbia heterophylla, post-emergence, 480 h, EPHHL POST, use rate 0.25 gai/ha) | pest or weed control at […] (Euphorbia heterophylla [1]; Euphorbia heterophylla, post-emergence, 480 h, POST, 0.25 gai/ha)
10%: pest or weed control at 0.5 g/ha (Abutilon theophrasti [3]; Abutilon theophrasti, pre-emergence, 480 h, 0.5 gai/ha)
5%: inhibition at […] (Euphorbia heterophylla [4]; Euphorbia heterophylla, pre-emergence, 480 h, EPHHL PRE, use rate 0.25 gai/ha, read-out: % activity) | pest or weed control at […] (Euphorbia heterophylla [4]; Euphorbia heterophylla, pre-emergence, 480 h, PRE, 0.25 gai/ha)
0%: inhibition at […] (Ambrosia artemisiifolia; Ambrosia artemisiifolia, pre-emergence, 480 h, AMBEL PRE, use rate 0.25 gai/ha, read-out: % activity) | inhibition at 0.5 g/ha (Ambrosia artemisiifolia; Ambrosia artemisiifolia, pre-emergence, 480 h, AMBEL PRE, use rate 0.5 gai/ha, read-out: % activity) | pest or weed control at […] (Ambrosia artemisiifolia; Ambrosia artemisiifolia, pre-emergence, 480 h, PRE, 0.25 gai/ha) | inhibition at […] (Lolium multiflorum; Lolium multiflorum, pre-emergence, 480 h, LOLMU PRE, use rate 0.25 gai/ha, read-out: % activity) | pest or weed control at […] (Lolium multiflorum; Lolium multiflorum, pre-emergence, 480 h, PRE, 0.25 gai/ha) | pest or weed control at 0.5 g/ha (Lolium multiflorum; Lolium multiflorum, pre-emergence, 480 h, PRE, 0.5 gai/ha) | pest or weed control at […] (Abutilon theophrasti [3]; Abutilon theophrasti, pre-emergence, 480 h, 0.25 gai/ha) | pest or weed control at […] (Setaria viridis; Setaria viridis, pre-emergence, 480 h, 0.25 gai/ha) | pest or weed control at 0.5 g/ha (Setaria viridis; Setaria viridis, pre-emergence, 480 h, 0.5 gai/ha) | inhibition at 0.5 g/ha (Euphorbia heterophylla [4]; Euphorbia heterophylla, pre-emergence, 480 h, EPHHL PRE, use rate 0.5 gai/ha, read-out: % activity) | pest or weed control at 0.5 g/ha (Euphorbia heterophylla [4]; Euphorbia heterophylla, pre-emergence, 480 h, PRE, 0.5 gai/ha) | pest or weed control at 0.5 g/ha (Amaranthus retroflexus; Amaranthus retroflexus, pre-emergence, 480 h, 0.5 gai/ha) | inhibition at […] (Commelina benghalensis; Commelina benghalensis, pre-emergence, 480 h, COMBE PRE, use rate 0.25 gai/ha, read-out: % activity) | inhibition at 0.5 g/ha (Commelina benghalensis; Commelina benghalensis, pre-emergence, 480 h, COMBE PRE, use rate 0.5 gai/ha) | pest or weed control at 0.5 g/ha (Commelina benghalensis; Commelina benghalensis, pre-emergence, 480 h, PRE, 0.5 gai/ha)
85%: inhibition at 0.5 g/ha (Geranium pusillum; GERPU POST, use rate 0.5 gai/ha) | pest or weed control at 0.5 g/ha (Geranium pusillum; POST, 0.5 gai/ha)

FC(F)c1cc(-c2c(Cl)cccc2Oc2ncc(Cl)cn2)on1 [Rimisoxafen, rimisoxafen]
10%: % activity solo application (Commelina benghalensis; PRE, 8 gai/ha) | % activity solo application (Digitaria sanguinalis; POST, 16 gai/ha)
25%: % activity solo application (Amaranthus retroflexus; 8 gai/ha)
15%: % activity solo application (Euphorbia heterophylla [1]; POST, EPHHL, 16 gai/ha)
0%: % activity solo application (Ambrosia artemisiifolia; PRE, 4 gai/ha) | % activity solo application (Ambrosia artemisiifolia; PRE, 8 gai/ha) | % activity solo application (Ambrosia artemisiifolia; PRE, 16 gai/ha) | % activity solo application (Ambrosia artemisiifolia; PRE, 32 gai/ha) | % activity solo application (Echinochloa crus-galli [5]; 4 gai/ha) | % activity solo application (Echinochloa crus-galli [5]; 8 gai/ha) | % activity solo application (Echinochloa crus-galli [5]; 16 gai/ha) | % activity solo application (Echinochloa crus-galli [5]; 32 gai/ha) | % activity solo application (Lolium multiflorum; PRE, LOLMU, 8 gai/ha) | % activity solo application (Abutilon theophrasti [3]; 4 gai/ha) | % activity solo application (Euphorbia heterophylla [4]; PRE, 8 gai/ha) | % activity solo application (Euphorbia heterophylla [4]; PRE, 16 gai/ha) | % activity solo application (Commelina benghalensis; PRE, 4 gai/ha) | % activity solo application (Commelina benghalensis; PRE, 16 gai/ha) | % activity solo application (Alopecurus myosuroides; 4 gai/ha) | % activity solo application (Alopecurus myosuroides; 8 gai/ha) | % activity solo application (Alopecurus myosuroides; 16 gai/ha) | % activity solo application (Alopecurus myosuroides; 32 gai/ha)
5%: % activity solo application (Abutilon theophrasti [3]; 8 gai/ha) | % activity solo application (Abutilon theophrasti [3]; 16 gai/ha) | % activity solo application (Digitaria sanguinalis; POST, 4 gai/ha) | % activity solo application (Digitaria sanguinalis; POST, 8 gai/ha)
80%: % activity solo application (Abutilon theophrasti [6])
75%: % activity solo application (Amaranthus retroflexus; 16 gai/ha)
30%: % activity solo application (Commelina benghalensis; PRE, 32 gai/ha)
20%: % activity solo application (Digitaria sanguinalis; POST, 32 gai/ha)
35%: % activity solo application (Abutilon theophrasti [3]; 32 gai/ha) | % activity solo application (Setaria viridis; 8 gai/ha) | % activity solo application (Setaria viridis; 16 gai/ha)

COCc1cnc(C2=NC(C)(C(C)C)C(=O)N2)c(C(=O)O)c1 (centres unmarked) [Imazamox, imazamox]
25%: pest or weed control at 2 g/ha (Amaranthus retroflexus; Amaranthus retroflexus, pre-emergence, 480 h, 2 gai/ha)
15%: pest or weed control at 2 g/ha (Euphorbia heterophylla [4]; Euphorbia heterophylla, pre-emergence, 480 h, PRE, 2 gai/ha)
5%: pest or weed control at 2 g/ha (Setaria viridis; Setaria viridis, pre-emergence, 480 h, 2 gai/ha)
55%: pest or weed control at 2 g/ha (Echinochloa crus-galli [2]; POST, 2 gai/ha) | pest or weed control at 2 g/ha (Digitaria sanguinalis; Digitaria sanguinalis, post-emergence, 480 h, POST, 2 gai/ha)
10%: pest or weed control at 1 g/ha (Euphorbia heterophylla [1]; Euphorbia heterophylla, post-emergence, 480 h, POST, 1 gai/ha) | pest or weed control at 2 g/ha (Euphorbia heterophylla [1]; Euphorbia heterophylla, post-emergence, 480 h, POST, 2 gai/ha) | pest or weed control at 1 g/ha (Abutilon theophrasti [3]; Abutilon theophrasti, pre-emergence, 480 h, 1 gai/ha) | pest or weed control at 1 g/ha (Euphorbia heterophylla [4]; Euphorbia heterophylla, pre-emergence, 480 h, PRE, 1 gai/ha)
0%: pest or weed control at 1 g/ha (Ambrosia artemisiifolia; Ambrosia artemisiifolia, pre-emergence, 480 h, PRE, 1 gai/ha) | pest or weed control at 2 g/ha (Ambrosia artemisiifolia; Ambrosia artemisiifolia, pre-emergence, 480 h, PRE, 2 gai/ha, read-out: % activity) | pest or weed control at 1 g/ha (Echinochloa crus-galli [5]; Echinochloa crus-galli, pre-emergence, 480 h, 1 gai/ha) | pest or weed control at 1 g/ha (Lolium multiflorum; Lolium multiflorum, pre-emergence, 480 h, PRE, 1 gai/ha) | pest or weed control at 1 g/ha (Commelina benghalensis; Commelina benghalensis, pre-emergence, 480 h, PRE, 1 gai/ha) | pest or weed control at 2 g/ha (Commelina benghalensis; Commelina benghalensis, pre-emergence, 480 h, PRE, 2 gai/ha, read-out: % activity)
